Experimental data as given in patent US20070009956A1 (Council of Scientific and Industrial Research, priority 2003, published 2007).
Where a chain is given by its changes, count along the chain named. “Also recorded” adds a separate entry of the source. Structures can show the parent of a compound that is named as a salt.

Tests used:
α-crystallin [1] = molecular target: T1, α-crystallin (Bos taurus, UniProt P02470+P02510); experiment: Circular dichroism spectra; design: species or system calf
T1 construct: α-Crystallin was purified from calf eye lenses previously described (24); from tissue; host or cells: calf eye lenses
T1 sequence (P02470 1-173): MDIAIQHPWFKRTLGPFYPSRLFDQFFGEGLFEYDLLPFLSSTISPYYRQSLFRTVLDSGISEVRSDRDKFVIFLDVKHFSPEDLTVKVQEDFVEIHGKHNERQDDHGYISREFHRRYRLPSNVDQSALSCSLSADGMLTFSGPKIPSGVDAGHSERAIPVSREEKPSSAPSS
T1 sequence (P02510 1-175): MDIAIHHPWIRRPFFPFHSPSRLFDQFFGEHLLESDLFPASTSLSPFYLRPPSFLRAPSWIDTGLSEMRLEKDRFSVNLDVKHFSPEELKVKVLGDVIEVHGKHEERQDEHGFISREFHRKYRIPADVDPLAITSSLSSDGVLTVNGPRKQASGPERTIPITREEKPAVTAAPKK
Description: Circular dichroism spectra were recorded using a Jasco J-715 Spectropolarimeter. All spectra are the average of 4 accumulations.

α-crystallin [2] = molecular target: T1, α-crystallin; experiment: Thermally induced aggregation of ξ-crystallin at 43° C., chaperone activity of α-crystallin; type: biochemical, calf; details: 1:4 (w/w) α- to ξ-crystallin, preincubation with 100 mM Arg.HCl, 53% without
Description: Chaperone activity measurement of α-crystallin towards the thermal aggregation of ε-crystallin was performed as described in our earlier study (25). Buffer A either in the absence or in the presence of α-crystallin (0.025 mg/ml) and required concentrations of Arg.HCl was incubated at 43° C. for 3 min in the thermostated cuvette holder of the fluorescence spectrophotometer. ε-Crystallin was then added to a final concentration of 0.1 mg/mL The extent of aggregation was monitored as a function of time by measring the scalr of 465 nm light as descnbed above, […]

α-crystallin [3] = molecular target: T1, α-crystallin; experiment: ANS binding fluorescence; design: species or system calf; details: 37° C., 100 mM Arg.HCl
Description: To study the binding of the hydrophobic probe, ANS, to α-crystallin, 12 uL of 10 mM methanolic solution of ANS was added to 1.2 ml of a 0.5 mg/ml solution of α-crystallin in Buffer A alone or in the buffer containing the required concentrations of Arg.HCl. The samples were excited at 365 nm and emission spectra recorded from 400-600 nm at 37° C. […] All spectra were corrected for the respective blanks. Spectra were recorded in the corrected spectrum mode.

R120G αB-crystallin = molecular target: T2, R120G αB-crystallin (Homo sapiens, UniProt P02511, R120G); type: biochemical; details: 37° C., 0.5:1 ratio to insulin, 300 mM Arg.HCl; negative protection without
T2 sequence (P02511 1-175 R120G): T1 sequence (P02510 1-175) with A40T, I61F, R120G, A132T, A152V
Description: (§1) All chaperone assays were carried out in 10 mM phosphate buffer. pH 7.4, containing 100 mM NaCl (Buffer A). […] Insulin (0.2 mg/ml) was then added and reduction of insulin was initiated by adding 20 ρL of 1 M DTT to 1.2 ml of the sample. The extent of aggregation of insulin was measured as a function of time by monitoring 90° scattering at 465 nm using a Hitachi F-4000 fluorescence spectrophotometer. The excitation and emission band passes were set at 3 nm.

[4] = molecular target: T3, recombinant human αA-crystallin (Homo sapiens, UniProt P02489); experiment: DTT-induced aggregation of insulin, chaperone-like activity of αA-crystallin; type: biochemical; details: 37° C., 1:2 (w/w) to insulin
T3 construct: made in house; host or cells: Escherichia coli
T3 sequence (P02489 1-173): T1 sequence (P02470 1-173) with I3V, A4T, E91D, S142C, P147Q, S148T, V150L, G153T, S155A, S168T
Description: as §1

α-crystallin [5] = molecular target: T1, α-crystallin; experiment: Glycerol gradient sedimentation; design: species or system calf
Description: Glycerol gradient centrifugation was carried out essentially as described by Lambert et al. (43). α-Crystallin, α-A- or α-B-crystallin (2 mg/ml) was incubated in 50 mM Tris HCl buffer (pH 7.4) containing 100 mM NaCl, 1 mM EDTA alone or in the presence of 300 mM Arg.HCl for 2 hours at 37° C. The samples (0.5 ml) were loaded on top of a 12 ml linear grddient of glycerol (10-40%) made in 50 mM Tris-HCl buffer, pH 7.4, containing 100 mM NaCl and 1 mM EDTA. Arg.HCl-treated α-crystllin samples were run in the gradient also containing 300 mM Arg.HCl. The tubes were centriflged for 18 hours at 30000 rpm in a Beckman SW41 rotor at 4° C. Fractions (0.3 ml) were withdrawn from the top using a Haake-Buchler Auto Densi-Flowt HC gradient former/remover and optical density at 280 nm of the fractions were measured using a Shimadzu W-1601 spectrophotometer. To estimate the molecular masses of the α-crystallin samples, proteins with defined molecular masses such as thyroglobulin (669 kDa), catalase (240 kDa) and aldolase (158 kDa) were used.

[6] = molecular target: T4, recombinant human αB-crystallin (Homo sapiens, UniProt P02511); experiment: DTT-induced aggregation of insulin, chaperone-like activity of αB-crystallin; type: biochemical; details: 37° C., 1:4 (w/w) to insulin
T4 construct: made in house; host or cells: Escherichia coli
T4 sequence (P02511 1-175): T1 sequence (P02510 1-175) with A40T, I61F, A132T, A152V
Description: as §1

[7] = molecular target: T5, calf eye lens α-crystallin (Bos taurus, UniProt P02470+P02510); experiment: DTT-induced aggregation of insulin, chaperone-like activity of α-crystallin; details: for protection offered by α-crystallin: 25° C., α-crystallin to insulin 1:1 (w/w); for effect on the chaperone-like activity of α-crystallin: α-crystallin 0.1 mg/ml, insulin 0.2 mg/ml; for percent protection offered by α-crystallin: 36% in the absence of Lys.HCl
T5 sequence (P02470 1-173): T1 sequence (P02470 1-173)
T5 sequence (P02510 1-175): T1 sequence (P02510 1-175)
Description: as §1

α-crystallin [8] = molecular target: T1, α-crystallin; experiment: Intrinsic tryptophan fluorescence; design: species or system calf; details: 37° C., in the presence of Arg.HCl
Description: Fluorescence spectra were recorded using a Hitachi F-4000 Fluorescence Spectrophotometerequipped with a thermostated cuvette holder. All the studies were performed at 37° C. All spectra were recorded in the corrected spectrum mode. The nirinsic tryptophan fluorescence spectra of α-crystllin (0.2 mg/ml) in Buffer A alone or in the buffer containing the required concentrations of Arg.HCl were recorded by exciting the sample at 295 nm with the excitation and emission band passes set at 3 nm.

insulin = experiment: DTT-induced aggregation of insulin without α-crystallin; type: biochemical; details: 37° C., no α-crystallin
Description: as §1

R116C αA-crystallin = molecular target: T6, R116C αA-crystallin (Homo sapiens, UniProt P02489, R116C); type: biochemical; details: 500 mM, data not shown
T6 sequence (P02489 1-173 R116C): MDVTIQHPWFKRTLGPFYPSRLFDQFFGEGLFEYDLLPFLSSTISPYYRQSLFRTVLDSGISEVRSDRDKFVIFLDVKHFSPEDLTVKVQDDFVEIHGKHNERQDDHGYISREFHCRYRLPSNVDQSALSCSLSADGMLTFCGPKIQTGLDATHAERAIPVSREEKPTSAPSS

α-crystallin [9] = molecular target: T7, α-crystallin (Homo sapiens, UniProt P02489+P02511); details: 0.8-1.0 M Gdn.HCl; cited from earlier work
T7 sequence (P02489 1-173): T6 sequence (P02489 1-173 R116C) with C116R
T7 sequence (P02511 1-175): T1 sequence (P02510 1-175) with A40T, I61F, A132T, A152V

Hsp 16.3 = Hsp 16.3 (Mycobacterium tuberculosis, UniProt P9WMK1); details: Gdn.HCl-induced perturbation of structure; cited from earlier work
Shumiya cataract rats = details: fed orally; cited from earlier work
diabetic rats = details: rat, in vivo; cited from earlier work

Hsp 16.3, sequence (P9WMK1 whole entry): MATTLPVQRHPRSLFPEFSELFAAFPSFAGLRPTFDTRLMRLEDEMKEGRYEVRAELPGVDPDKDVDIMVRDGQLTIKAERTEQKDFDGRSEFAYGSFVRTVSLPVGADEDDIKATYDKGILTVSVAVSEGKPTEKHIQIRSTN

In the case of `Cl.N=C(N)NCCCC(N)C(=O)O` (racemic) [DL-Arg.HCl, DLarginine hydrochloride], the “far-UV CD spectra, secondary structure of α-crystallin” value (α-crystallin [1]; 37° C., DL-Arg.HCl) is reported as “is not altered”.
With `Cl.N=C(N)NCCC[C@H](N)C(=O)O` [Arg.HCl, Arginine hydrochloride] the “near-UV CD spectra of α-crystallin” value (α-crystallin [1]; 37° C., 100, 200, 300 mM Arg.HCl, region 270-290 nm) was “subtle conformational changes at the tertiary structural level”, the “protective ability of α-crystallin against aggregation of ξ-crystallin” value (α-crystallin [2]) was roughly 81% and the “increase in the fluorescence intensity of ANS at the emission maximum” value (α-crystallin [3]) was roughly 38%. For the same compound, the “extent of protection by R120G αB-crystallin” value (R120G αB-crystallin) was roughly 75%, the “effect on the chaperone-like activity of αA-crystallin” value [4] was “enhanced the activity” and the “half-width of the sedimentation profile of α-crystallin” value (α-crystallin [5]; 300 mM Arg.HCl, 8.75 in the absence) was 6.25 x-axis units. The “molecular mass of α-crystallin” value (α-crystallin [5]; 300 mM Arg.HCl, ~700 kDa in the absence) was roughly 360 kDa, the “effect on the chaperone-like activity of αB-crystallin” value [6] was “enhanced the activity” and the “protection offered by α-crystallin” value ([7]; 100 mM Arg.HCl, approximately 13% without) was 28%. For the same compound, the “protection offered by α-crystallin” value ([7]; 300 mM Arg.HCl) was “almost completely prevented”, the “prevention of aggregation of insulin by α-crystallin” value ([7]; 37° C., 1:2 (w/w) α-crystallin:insulin, 200 mM Arg.HCl, ~36% without additive) was “completely” and the “effect on the chaperone-like activity of α-crystallin” value (shortened to “effect … of α-crystallin”) ([7]; 37° C.) was “comparable”. For the same compound, the “intrinsic tryptophan fluorescence spectrum of α-crystallin” value (α-crystallin [8]) was “did not change considerably”, the “aggregation of insulin, additive alone” value (insulin) was “significantly increased aggregation” and the “effect on the activity of R116C αA-crystallin” value (R116C αA-crystallin) was “did not enhance”.
For `N=C(N)N` [Gdn.HCl, guanidine hydrochloride], the “chaperone-like activity of α-crystallin” value (α-crystallin [9]) is listed as “enhancement in its chaperone-like activity”, the “chaperone-like activity of Hsp 16.3” value (Hsp 16.3) is listed as “enhanced” and the “effect … of α-crystallin” value ([7]; 37° C., hydrochloride) is listed as “comparable”.
With `Cl.NCCCC[C@H](N)C(=O)O` [Lys.HCl, Lysine hydrochloride] the “near-UV CD spectrum of α-crystallin in the presence of Lys.HCl” value (α-crystallin [1]; data not shown) was “change in the near-UV CD spectrum”, the “size of α-crystallin in the presence of Lys.HCl” value (α-crystallin [5]; data not shown) was “change in the near-UV CD spectrum and size” and the “percent protection offered by α-crystallin” value ([7]; 37° C., 100 mM Lys.HCl) was 17%. The “percent protection offered by α-crystallin” value ([7]; 37° C., 300 mM Lys.HCl) was “about 8%” and the “effect … of α-crystallin” value ([7]; 37° C., hydrochloride) was “did not enhance; also recorded: decreased the activity”.
In the case of `N=C(N)NN` [aminoguanidine], the “opacification of the lens” value (Shumiya cataract rats) is listed as “inhibited the opacification of the lens” and the cataract formation (diabetic rats) is listed as “inhibit cataract formation”.
